Consider 2 compounds from patent publication US11267830B2, “Flow battery and components thereof” (University of Massachusetts, priority 2017, dated 2022).

Read-outs that look alike come from different tables or passages of the source.

Data set [1] in a line: Cyclic voltammetry (formal potential, diffusion coefficient). The format is physicochemical. To be noted: for diffusion coefficient for the one-electron oxidation: 0.5 M TBAPF6, Randles-Sevcik fit. Here is the method: (§1) Cyclic voltammetry was carried out in DMSO using a 3 mm glassy carbon electrode as working electrode, a Pt wire counter electrode, a silver wire pseudo reference electrode and tetrabutylammonium hexafluorophosphate as supporting […]. Ferrocene was used as an internal potential reference. Static cell cycling was carried out using graphite felt (Alfa Aesar, part #AA14630RR) which was heat-treated in a furnace at 250° C. under air, overnight, before use.
CV data with variable scan rates were used to determine the diffusion coefficient for the one-electron oxidation of CVBH^−2 by fitting with the Randles-Sevcik equation. In addition, to investigate the effect of solvent on this property, the analysis was carried out in propylene carbonate (PC).

The nature of a further data set: Solubility in solvents. The format is physicochemical. To be noted: solvents other than DMSO and water. The text has this: Since the solubility of CVBH is low in solvents other than DMSO and water, investigation of the electrochemistry in PC necessitated the synthesis of the bis-tetramethylammonium (TMA) salt of vanadium bis-hydroxyiminodiacetate (VBH), which was characterized using FTIR and X-ray crystallography (FIG. 2). While the coordination sphere of the VBH dianion is unperturbed compared to that of CVBH, solubility is greatly altered with two diffuse TMA countercations compared to the Ca^+2 counter-cation of CVBH. Altering the cation(s) of VBH^2− is a way to tune solubility in various battery-relevant solvents and compatibility with an array of membrane/separator architectures and supporting electrolytes. These attributes are paramount to realization of high power and energy densities in NRFB systems and this strategy offers a promising avenue for optimization.

A short description of data set [2]: Exhaustive cycling using cyclic voltammetry (stability). The format is physicochemical. Here is the method:
as §1
Any decomposition of CVBH under these conditions would be evident as a decrease in peak current and changes in reversibility, as the identity of the species present at the electrode evolved over time. […] This is in stark contrast to the anaerobic and anhydrous conditions that are necessary in handling other NRFB active materials. […] This occurs even in ostensibly anhydrous systems due to the presence of adventitious water, and is the result of ligand substitution, yielding a vanadyl (V═O) species that is nearly ubiquitous in aqueous vanadium(iv) coordination chemistry. […] While the former has been measured, the latter can be deduced using a thermodynamic cycle, constructed from published data for the vanadium(iv/v) reduction potentials of CVBH and aqueous, acidic vanadium ions, along with the metal-ligand stability constant of CVBH in the vanadium(iv) oxidation state (FIG. 4).

Data set [3] can be described thus: Metal-ligand stability constant. The format is physicochemical. To be noted: oxidized, vanadium(v) state; deduced using a thermodynamic cycle. The source says: Any decomposition of CVBH under these conditions would be evident as a decrease in peak current and changes in reversibility, as the identity of the species present at the electrode evolved over time. […] This is in stark contrast to the anaerobic and anhydrous conditions that are necessary in handling other NRFB active materials. […] This occurs even in ostensibly anhydrous systems due to the presence of adventitious water, and is the result of ligand substitution, yielding a vanadyl (V═O) species that is nearly ubiquitous in aqueous vanadium(iv) coordination chemistry. It should be further noted that CVBH is stable in both the reduced, vanadium(iv), state (as-synthesized) and the oxidized, vanadium(v) state, with metal ligand stability constants of 8.2×10^21 and 2.6×10^23, respectively. While the former has been measured, the latter can be deduced using a thermodynamic cycle, constructed from published data for the vanadium(iv/v) reduction potentials of CVBH and aqueous, acidic vanadium ions, along with the metal-ligand stability constant of CVBH in the vanadium(iv) oxidation state (FIG. 4).

A short description of data set [4]: Static cell cycling to ~80% state of charge. To be noted: more than 90 cycles, 0.35 V and −0.35 V vs. open circuit. The format is physicochemical. Here is the method: as §1
As such, the behavior of CVBH during cycling to ˜80% state of charge was investigated by alternately applying potentials of 0.35 V and −0.35 V vs. open circuit to oxidize and reduce the compound, respectively. […] Some decrease in peak current over time was observed (FIG. 5B), however, it was restored after stirring was stopped for 20 minutes (FIG. 5B, dotted line).

For data set [5] the following is noted: earlier study, sample contaminated by mono-sodium salt of the ligand; cited from earlier work.
The conditions of data set [6]: reduced, vanadium(iv) state; cited from earlier work.
The conditions of data set [7]: when oxidized to the 4+ state; cited from earlier work.

`O.O.O.O.O.O=C([O-])CN(O)CC(=O)[O-].O=C([O-])CN(O)CC(=O)[O-].[Ca].[V+4]` [CVBH, Calcium(ii) vanadium(iv)bis-hydroxyiminodiacetate pentahydrate]: the “diffusion coefficient for the one-electron oxidation” value in data set [1] (DMSO) is recorded as 8.3×10^−7 cm^2·s^−1; in data set [1] (propylene carbonate (PC)) it was 5.6×10^−7 cm^2·s^−1. Besides, in data set [1] (DMSO, ferrocene as internal standard), the “formal potential (E°′=E1/2)” value is 0.30 V vs standard hydrogen electrode (SHE). In addition, the solubility result in “Solubility in solvents” was “low”. Further, the “change in voltammogram after addition of water” value in data set [2] (20% water (by volume) in the presence of oxygen) is recorded as “no change in voltammogram shape”. Moreover, the “change in voltammogram on exhaustive CV cycling” value in data set [2] (over 800 cycles) is given as “virtually no change in the shape of the voltammogram”. The “metal ligand stability constant” value is 2.6×10^23 in data set [3] and 8.2×10^21 in data set [6]. The “change in CV before and after static cell cycling” value in data set [4] is on record as “no observed change in the shape of the CV”. Further, the “formal potential, previously reported value” in data set [5] is 0.38 V vs. SHE.

With `CC(=O)/C=C(/C)O.CC(=O)/C=C(/C)O.CC(=O)/C=C(/C)O.[V]` [V(acac)3], in data set [7], the “stability in the presence of water” value was “rapidly decomposes”.
